Data taken from patent US8466193B2, “Selective inhibitors of histone deacetylase” (Pharmacyclics, Inc., priority 2008, dated 2013).

system: Jurkat cells; assay: Cell proliferation assay, growth inhibition by Alamar Blue; type: cell-based; details: Homo sapiens, 72 h, Jurkat cells treated with compound for 3 days
Method: Cell lines were obtained from DSMZ (Braunschweig, Germany) or ATCC (Manassas, Va.). Cells were grown in RPMI 1640 with 10% fetal bovine serum in a 5% CO2/air incubator at 37° C. Thapsigargin and BAPTA-AM were from Calbiochem (San Diego, Calif.). 3-((dimethylamino)methyl)-N-(2-(4-(hydroxycarbamoyl)phenoxy)ethyl)benzofuran-2-carboxamide is a broad-spectrum HDAC inhibitor which was synthesized as previously described. Other analogs with varying degrees of specificity towards the HDAC isoforms were synthesized as described herein.
Tumor cell lines and human umbilical vein endothelial cells (HUVEC) were cultured for at least two doubling times, and growth was monitored at the end of compound exposure using an Alamar Blue™ (Biosource, Camarillo, Calif.) fluorometric cell proliferation assay as recommended by the manufacturer. Compounds were assayed in triplicate wells in 96-well plates. The concentration required to inhibit cell growth by 50% (GI50) and 95% confidence intervals were estimated from nonlinear regression using a 4-parameter logistic equation. The effect of HDAC8 selective inhibitor compounds on cell proliferation in Jurkat cells was measured. Apoptosis was measured by Annexin-V flow cytommetry. Growth inhibition was measured by Alamar Blue assay. Cells were treated with compound for 3 days.

GI50 | SMILES
25.2 µM | O=C(NO)c1ccc2ccn(CCc3ccccc3)c2c1 [Compound 302, N-hydroxy-1-(2-phenyl-ethyl)-1H-indole-6-carboxamide]
5.2 µM | COc1ccc(Cn2cc(CNCc3ccccc3)c3ccc(C(=O)NO)cc32)cc1 [Compound 308, 3-((benzylamino)methyl)-N-hydroxy-1-(4-methoxybenzyl)-1H-indole-6-carboxamide]
12.5 µM | O=C(NO)c1ccc2ccn(CCOc3ccc(CN4CCOCC4)cc3)c2c1 [Compound 328, N-hydroxy-1-(2-(4-(morpholin-4-ylmethyl)phenoxy)ethyl)-1H-indole-6-carboxamide]
4.7 µM | COc1ccc(Cn2ccc3ccc(C(=O)NO)cc32)cc1F [Compound 330, N-hydroxy-1-(3-fluoro-4-methoxybenzyl)-1H-indole-6-carboxamide]

SMILES | GI50
COc1ccc(Cn2ccc3ccc(C(=O)NO)cc32)cc1 [Compound 306, N-hydroxy-1-(4-methoxybenzyl)-1H-indole-6-carboxamide] | 3.6 µM
